From ChEMBL document CHEMBL3217431, “Synthesis, in silico screening and bioevaluation of dispiro-cycloalkanones as antitubercular and mycobacterial NAD+-dependent DNA ligase inhibitors” (Medchemcomm, 2011)
In brackets after ≈: the same amount, converted by molar mass. Activity calls are given as the source filed them. The calls are words filed in the database; no cut-off is given here.

Key:
[1] = system: Mycobacterium tuberculosis; assay: Antitubercular activity against Mycobacterium tuberculosis H37Rv assessed as growth inhibition after 30 days by agar microdilution method; assay type: functional
DNA ligase = target: T1, DNA ligase (Enterobacteria phage T4, UniProt P00970); assay: Inhibition of nick joining activity of ATP-dependent bacteriophage T4 DNA ligase using [gamma32P]ATP-labeled nicked 40 bp DNA as substrate; set-up: species or system Tequatrovirus T4
T1 sequence (P00970 whole entry): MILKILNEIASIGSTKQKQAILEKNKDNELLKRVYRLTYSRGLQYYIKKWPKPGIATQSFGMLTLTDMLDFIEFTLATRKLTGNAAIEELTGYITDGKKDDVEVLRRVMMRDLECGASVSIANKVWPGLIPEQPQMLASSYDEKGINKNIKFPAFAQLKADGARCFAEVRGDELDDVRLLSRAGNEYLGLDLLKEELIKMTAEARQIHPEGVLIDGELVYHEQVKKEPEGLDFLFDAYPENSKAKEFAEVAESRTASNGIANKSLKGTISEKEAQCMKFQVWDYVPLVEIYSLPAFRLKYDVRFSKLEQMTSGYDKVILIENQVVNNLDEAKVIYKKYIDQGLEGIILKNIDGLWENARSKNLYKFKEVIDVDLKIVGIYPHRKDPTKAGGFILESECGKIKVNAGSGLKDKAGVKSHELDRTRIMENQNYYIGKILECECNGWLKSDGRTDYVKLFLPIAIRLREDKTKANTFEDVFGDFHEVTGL

DNA ligase 1 = DNA ligase 1 (Homo sapiens, UniProt P18858); assay: Inhibition of nick joining activity of human DNA ligase 1 using [gamma32P]ATP-labeled nicked 40 bp DNA as substrate
[2] = Competitive inhibition of nick joining activity of Mycobacterium tuberculosis full length NAD+-dependent DNA ligase using [gamma32P]ATP-labeled nicked 40 bp DNA as substrate by double reciprocal plot assay in presence of rising concentrations of NAD+
[3] = Binding affinity to plasmid DNA (unknown origin) by gel electrophoresis mobility shift assay
Salmonella typhimurium [4] = assay: In vivo antibacterial activity against wild type Salmonella typhimurium LT2 assessed as growth inhibition after 20 hrs by microdilution assay; assay type: functional, Salmonella enterica subsp. enterica serovar Typhimurium; conditions: Salmonella enterica, LT2, 20 h
[5] = Ratio of IC50 for human DNA ligase 1 to IC50 for Mycobacterium tuberculosis full length NAD+-dependent DNA ligase
Calf thymus DNA = assay: Binding affinity to calf thymus DNA up to 250 uM by ethidium bromide displacement assay; assay type: nucleic-acid assay; conditions: Bos taurus
[6] = Ratio of IC50 for ATP-dependent bacteriophage T4 DNA ligase to IC50 for Mycobacterium tuberculosis full length NAD+-dependent DNA ligase
Escherichia coli [7] = assay: In vivo antibacterial activity against Escherichia coli GR501 harboring temperature-sensitive lig251 mutant gene transformed with plasmid encoding T4 DNA ligase assessed as growth inhibition after 20 hrs by microdilution assay; assay type: functional; conditions: GR501, 20 h
Escherichia coli [8] = assay: In vivo antibacterial activity against Escherichia coli GR501 harboring lig251 temperature-sensitive mutant gene transformed with control plasmid pTrc99A assessed as growth inhibition after 20 hrs by microdilution assay; assay type: functional; conditions: GR501, 20 h
Salmonella typhimurium [9] = assay: In vivo antibacterial activity against DNA ligase deficient Salmonella typhimurium variant TT15151 expressing […] T4 DNA ligase gene assessed as growth inhibition after 20 hrs by microdilution assay; assay type: functional, Salmonella enterica subsp. enterica serovar Typhimurium; conditions: Salmonella enterica, TT15151, 20 h
[10] = Inhibition of nick joining activity of Mycobacterium tuberculosis full length NAD+-dependent DNA ligase using [gamma32P]ATP-labeled nicked 40 bp DNA as substrate

Chain of DNA ligase 1 (P18858 whole entry): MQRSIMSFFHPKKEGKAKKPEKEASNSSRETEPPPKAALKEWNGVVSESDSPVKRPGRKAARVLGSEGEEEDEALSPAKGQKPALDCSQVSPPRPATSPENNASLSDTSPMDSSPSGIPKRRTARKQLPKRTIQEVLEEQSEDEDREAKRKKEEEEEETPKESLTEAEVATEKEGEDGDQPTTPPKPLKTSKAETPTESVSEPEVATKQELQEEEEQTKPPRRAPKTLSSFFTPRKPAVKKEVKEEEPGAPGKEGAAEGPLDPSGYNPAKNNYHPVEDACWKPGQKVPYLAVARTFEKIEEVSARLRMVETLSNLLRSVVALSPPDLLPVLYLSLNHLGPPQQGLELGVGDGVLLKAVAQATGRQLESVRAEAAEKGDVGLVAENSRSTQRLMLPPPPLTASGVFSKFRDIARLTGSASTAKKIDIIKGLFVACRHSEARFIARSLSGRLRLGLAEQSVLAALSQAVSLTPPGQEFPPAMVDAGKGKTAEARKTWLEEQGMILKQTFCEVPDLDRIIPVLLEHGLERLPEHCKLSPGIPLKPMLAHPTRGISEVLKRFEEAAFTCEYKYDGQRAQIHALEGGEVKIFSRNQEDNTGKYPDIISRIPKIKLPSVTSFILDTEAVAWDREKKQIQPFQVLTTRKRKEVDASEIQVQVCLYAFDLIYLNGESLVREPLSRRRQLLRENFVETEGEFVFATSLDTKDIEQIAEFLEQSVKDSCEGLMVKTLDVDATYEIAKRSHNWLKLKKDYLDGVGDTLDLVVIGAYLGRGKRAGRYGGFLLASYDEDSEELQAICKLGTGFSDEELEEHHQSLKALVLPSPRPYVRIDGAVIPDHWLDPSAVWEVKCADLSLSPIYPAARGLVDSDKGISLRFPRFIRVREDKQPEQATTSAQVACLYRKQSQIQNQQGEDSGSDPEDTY

## O=C1C2(CCC13CC3c1ccc(Br)cc1)CC2c1ccc(Br)cc1 (centres undefined)
[1]
  MIC90: 28 µM (≈ 12.5 µg/mL)

## O=C1C2(CCCC13CC3c1ccc(Br)cc1)CC2c1ccc(Br)cc1 (centres undefined)
DNA ligase
  IC50: 70.2 µM
DNA ligase 1
  IC50: 58.6 µM
[2]
  Ki: 5.9 µM
[3]
  Activity: inactive
Salmonella typhimurium [4]
  MIC: 43.4 µM (≈ 20 µg/mL)
[5]
  Ratio IC50: 8
Calf thymus DNA
  Activity: inactive
[6]
  Ratio IC50: 8
Escherichia coli [7]
  MIC: 65.2 µM (≈ 30 µg/mL)
Escherichia coli [8]
  MIC: 8.6 µM (≈ 3.96 µg/mL)
[1]
  MIC90: 13.5 µM (≈ 6.21 µg/mL)
Salmonella typhimurium [9]
  MIC: 76 µM (≈ 35 µg/mL)
[10]
  IC50: 7.3 µM

## NNC(=O)c1ccncc1 [ISONIAZID]
[1]
  MIC90: 4.7 µM (≈ 0.645 µg/mL)

## O=C1C2(CCCC13CC3c1ccc(OCc3ccccc3)cc1)CC2c1ccc(OCc2ccccc2)cc1 (centres undefined)
[1]
  MIC90: 24.3 µM (≈ 12.5 µg/mL)

## O=C1C2(CCC13CC3c1ccc(F)cc1)CC2c1ccc(F)cc1 (centres undefined)
[1]
  MIC90: > 30 µM

## COc1ccc(C2CC23CCC2(CC2c2ccc(OC)cc2)C3=O)cc1 (centres undefined)
[1]
  MIC90: > 30 µM

## O=C1C2(CCCC13CC3c1ccccc1)CC2c1ccccc1 (centres undefined)
DNA ligase
  IC50: 210 µM
DNA ligase 1
  IC50: 130 µM
[1]
  MIC90: > 30 µM
[10]
  IC50: 180 µM

## COc1ccc(C2CC23CCCCC2(CC2c2ccc(OC)cc2)C3=O)cc1 (centres undefined)
[1]
  MIC90: > 30 µM

## COc1cc(C2CC23CCCCC2(CC2c2cc(OC)c(OC)c(OC)c2)C3=O)cc(OC)c1OC (centres undefined)
[1]
  MIC90: 25.2 µM (≈ 12.5 µg/mL)

## O=C1C2(CCC13CC3c1ccc(OCc3ccccc3)cc1)CC2c1ccc(OCc2ccccc2)cc1 (centres undefined)
[1]
  MIC90: 25 µM (≈ 12.5 µg/mL)

## COc1ccc(C2CC23CCCC2(CC2c2ccc(OC)c(OC)c2)C3=O)cc1OC (centres undefined)
[1]
  MIC90: 29.6 µM (≈ 12.5 µg/mL)

## O=C1C2(CCCC13CC3c1ccc(F)cc1)CC2c1ccc(F)cc1 (centres undefined)
DNA ligase
  IC50: 33.4 µM
DNA ligase 1
  IC50: 45.4 µM
[3]
  Activity: inactive
Salmonella typhimurium [4]
  MIC: 29.5 µM (≈ 9.98 µg/mL)
[5]
  Ratio IC50: 5
Calf thymus DNA
  Activity: inactive
[6]
  Ratio IC50: 4
Escherichia coli [7]
  MIC: 178 µM (≈ 60.1 µg/mL)
Escherichia coli [8]
  MIC: 5.9 µM (≈ 2 µg/mL)
[1]
  MIC90: > 30 µM
Salmonella typhimurium [9]
  MIC: 148 µM (≈ 50 µg/mL)
[10]
  IC50: 8.6 µM

## O=C1C2(CCCCC13CC3c1ccc(Cl)cc1)CC2c1ccc(Cl)cc1 (centres undefined)
[1]
  MIC90: > 30 µM

## O=C1C2(CCCC13CC3c1ccc(Cl)cc1)CC2c1ccc(Cl)cc1 (centres undefined)
DNA ligase
  IC50: 20.2 µM
DNA ligase 1
  IC50: 18.5 µM
[1]
  MIC90: 16.8 µM (≈ 6.24 µg/mL)
[10]
  IC50: 12 µM

## COc1ccc(C2CC23CCCC2(CC2c2ccc(OC)cc2)C3=O)cc1 (centres undefined)
[1]
  MIC90: > 30 µM

## CC[C@@H](CO)NCCN[C@@H](CC)CO [ETHAMBUTOL]
[1]
  MIC90: 15.9 µM (≈ 3.25 µg/mL)

## O=C(C1CC1c1ccc(OCc2ccccc2)cc1)C1CC1c1ccc(OCc2ccccc2)cc1 (centres undefined)
[1]
  MIC90: 26.3 µM (≈ 12.5 µg/mL)

## COc1ccc(C2CC23CCCCC2(CC2c2ccc(OC)c(OC)c2)C3=O)cc1OC (centres undefined)
[1]
  MIC90: 28.6 µM (≈ 12.5 µg/mL)

## COc1cc(C2CC23CCCC2(CC2c2cc(OC)c(OC)c(OC)c2)C3=O)cc(OC)c1OC (centres undefined)
[1]
  MIC90: 25.9 µM (≈ 12.5 µg/mL)

## COc1ccc(C2CC23CCC2(CC2c2ccc(OC)c(OC)c2)C3=O)cc1OC (centres undefined)
[1]
  MIC90: > 30 µM
